In ChEMBL document CHEMBL1152373, “Synthesis and antimultidrug resistance evaluation of icariin and its derivatives” (Bioorg Med Chem Lett, 2009):
Activity calls are given as the source filed them. The calls are words filed in the database; no cut-off is given here.

System: not listed separately
Assay: Cytotoxicity against human MCF7/ADR cells after 72 hrs by MTT assay
Assay type: functional, cell-based
Conditions: NCI/ADR-RES
In the case of COc1ccc(-c2oc3c(CCC(C)(C)OC)c(O)cc(O)c3c(=O)c2O)cc1, the IC50 is reported as 20.9 µM. Compound COc1ccc(-c2oc3c4c(cc(O)c3c(=O)c2O)OC(C)(C)CC4)cc1S(=O)(=O)O has an IC50 greater than 100 µM. Compound COc1ccc(-c2oc3c(CC=C(C)C)c(O[C@@H]4O[C@H](CO)[C@@H](O)[C@H](O)[C@H]4O)cc(O)c3c(=O)c2O[C@@H]2O[C@@H](C)[C@H](O)[C@@H](O)[C@H]2O)cc1 [ICARIIN] has an IC50 greater than 100 µM. COc1ccc(-c2oc3c(CC=C(C)C)c(OS(C)(=O)=O)cc(O)c3c(=O)c2OS(C)(=O)=O)cc1 showed an IC50 of 80.8 µM. Compound COc1ccc(-c2oc3c(CC=C(C)C)c(O)cc(O)c3c(=O)c2O)cc1 [ICARITIN] has an IC50 of 52.1 µM. For COc1cccc2c1C(=O)c1c(O)c3c(c(O)c1C2=O)C[C@@](O)(C(=O)CO)C[C@@H]3O[C@H]1C[C@H](N)[C@H](O)[C@H](C)O1 [DOXORUBICIN], the IC50 was 25.3 µM.

System: MCF7
Assay: Ratio of IC50 for human MCF7/ADR cells to IC50 for human MCF7 cells
Assay type: functional
Conditions: not given
For COc1cccc2c1C(=O)c1c(O)c3c(c(O)c1C2=O)C[C@@](O)(C(=O)CO)C[C@@H]3O[C@H]1C[C@H](N)[C@H](O)[C@H](C)O1 [DOXORUBICIN], the “Ratio IC50” value was 47.7.

System: NCI/ADR-RES
Assay: Reversal of P-gp-mediated multidrug resistance in human MCF7/ADR cells assessed as enhancement in cytotoxicity of adriamycin
Assay type: cell-based
Conditions: not given
With COc1ccc(-c2oc3c(CCC(C)(C)OC)c(O)cc(O)c3c(=O)c2O)cc1 the Activity was “Dose-dependent effect”. With COc1ccc(-c2oc3c(CC=C(C)C)c(O[C@@H]4O[C@H](CO)[C@@H](O)[C@H](O)[C@H]4O)cc(O)c3c(=O)c2O[C@@H]2O[C@@H](C)[C@H](O)[C@@H](O)[C@H]2O)cc1 [ICARIIN] the Activity was “Dose-dependent effect”. With COc1ccc(-c2oc3c(CC=C(C)C)c(O)cc(O)c3c(=O)c2O)cc1 [ICARITIN] the fold change (FC) was 10.

System: NCI/ADR-RES
Assay: Reversal of P-gp-mediated multidrug resistance in human MCF7/ADR cells assessed as assessed as increase in intracellular adriamycin accumulation at 5 uM incubated 2 hrs before adriamycin challenge by spectrophotometry
Assay type: cell-based
Conditions: not given
With COc1ccc(-c2oc3c(CCC(C)(C)OC)c(O)cc(O)c3c(=O)c2O)cc1 the Activity was “Active”. With COc1ccc(-c2oc3c4c(cc(O)c3c(=O)c2O)OC(C)(C)CC4)cc1S(=O)(=O)O the Activity was “Active”. With COc1ccc(-c2oc3c(CC=C(C)C)c(O[C@@H]4O[C@H](CO)[C@@H](O)[C@H](O)[C@H]4O)cc(O)c3c(=O)c2O[C@@H]2O[C@@H](C)[C@H](O)[C@@H](O)[C@H]2O)cc1 [ICARIIN] the Activity was “Active”. With COc1ccc(-c2oc3c(CC=C(C)C)c(OS(C)(=O)=O)cc(O)c3c(=O)c2OS(C)(=O)=O)cc1 the Activity was “Active”. For COc1ccc(-c2oc3c(CC=C(C)C)c(O)cc(O)c3c(=O)c2O)cc1 [ICARITIN], the Activity was “Active”.

System: MCF7
Assay: Reversal of P-gp-mediated multidrug resistance in human MCF7 cells assessed as assessed as increase in intracellular adriamycin accumulation at 5 uM incubated 2 hrs before adriamycin challenge by spectrophotometry
Assay type: cell-based
Conditions: not given
With COc1ccc(-c2oc3c(CCC(C)(C)OC)c(O)cc(O)c3c(=O)c2O)cc1 the Activity was “inactive”. For COc1ccc(-c2oc3c4c(cc(O)c3c(=O)c2O)OC(C)(C)CC4)cc1S(=O)(=O)O, the Activity was “inactive”. With COc1ccc(-c2oc3c(CC=C(C)C)c(O[C@@H]4O[C@H](CO)[C@@H](O)[C@H](O)[C@H]4O)cc(O)c3c(=O)c2O[C@@H]2O[C@@H](C)[C@H](O)[C@@H](O)[C@H]2O)cc1 [ICARIIN] the Activity was “inactive”. With COc1ccc(-c2oc3c(CC=C(C)C)c(OS(C)(=O)=O)cc(O)c3c(=O)c2OS(C)(=O)=O)cc1 the Activity was “inactive”. In the case of COc1ccc(-c2oc3c(CC=C(C)C)c(O)cc(O)c3c(=O)c2O)cc1 [ICARITIN], the Activity is reported as “inactive”.

System: NCI/ADR-RES
Assay: Reversal of P-gp-mediated multidrug resistance in human MCF7/ADR cells assessed as modulation factor, ratio of adriamycin IC50 without drug to adriamycin IC50 with drug at 1 uM after 72 hrs by MTT assay
Assay type: cell-based
Conditions: not given
For COc1ccc(-c2oc3c(CCC(C)(C)OC)c(O)cc(O)c3c(=O)c2O)cc1, the Ratio IC50 was 1.26. COc1ccc(-c2oc3c4c(cc(O)c3c(=O)c2O)OC(C)(C)CC4)cc1S(=O)(=O)O showed a Ratio IC50 of 1.33. COc1ccc(-c2oc3c(CC=C(C)C)c(O[C@@H]4O[C@H](CO)[C@@H](O)[C@H](O)[C@H]4O)cc(O)c3c(=O)c2O[C@@H]2O[C@@H](C)[C@H](O)[C@@H](O)[C@H]2O)cc1 [ICARIIN] gave a Ratio IC50 of 1.41. Work on COc1ccc(-c2oc3c(CC=C(C)C)c(OS(C)(=O)=O)cc(O)c3c(=O)c2OS(C)(=O)=O)cc1 yielded a Ratio IC50 of 1.11. In the case of COc1ccc(-c2oc3c(CC=C(C)C)c(O)cc(O)c3c(=O)c2O)cc1 [ICARITIN], the Ratio IC50 is reported as 2.48.

System: NCI/ADR-RES
Assay: Reversal of P-gp-mediated multidrug resistance in human MCF7/ADR cells assessed as modulation factor, ratio of adriamycin IC50 without drug to adriamycin IC50 with drug at 10 uM after 72 hrs by MTT assay
Assay type: cell-based
Conditions: not given
COc1ccc(-c2oc3c(CCC(C)(C)OC)c(O)cc(O)c3c(=O)c2O)cc1 gave a Ratio IC50 of 2.41. Work on COc1ccc(-c2oc3c4c(cc(O)c3c(=O)c2O)OC(C)(C)CC4)cc1S(=O)(=O)O yielded a Ratio IC50 of 2.15. With COc1ccc(-c2oc3c(CC=C(C)C)c(O[C@@H]4O[C@H](CO)[C@@H](O)[C@H](O)[C@H]4O)cc(O)c3c(=O)c2O[C@@H]2O[C@@H](C)[C@H](O)[C@@H](O)[C@H]2O)cc1 [ICARIIN] the Ratio IC50 was 1.59. COc1ccc(-c2oc3c(CC=C(C)C)c(OS(C)(=O)=O)cc(O)c3c(=O)c2OS(C)(=O)=O)cc1 showed a Ratio IC50 of 1.36. In the case of COc1ccc(-c2oc3c(CC=C(C)C)c(O)cc(O)c3c(=O)c2O)cc1 [ICARITIN], the Ratio IC50 is reported as 4.96.

System: NCI/ADR-RES
Assay: Reversal of P-gp-mediated multidrug resistance in human MCF7/ADR cells assessed as modulation factor, ratio of adriamycin IC50 without drug to adriamycin IC50 with drug at 25 uM after 72 hrs by MTT assay
Assay type: cell-based
Conditions: not given
With COc1ccc(-c2oc3c4c(cc(O)c3c(=O)c2O)OC(C)(C)CC4)cc1S(=O)(=O)O the Ratio IC50 was 2.56. COc1ccc(-c2oc3c(CC=C(C)C)c(O[C@@H]4O[C@H](CO)[C@@H](O)[C@H](O)[C@H]4O)cc(O)c3c(=O)c2O[C@@H]2O[C@@H](C)[C@H](O)[C@@H](O)[C@H]2O)cc1 [ICARIIN] showed a Ratio IC50 of 2.03. COc1ccc(-c2oc3c(CC=C(C)C)c(OS(C)(=O)=O)cc(O)c3c(=O)c2OS(C)(=O)=O)cc1 gave a Ratio IC50 of 1.46. For COc1ccc(-c2oc3c(CC=C(C)C)c(O)cc(O)c3c(=O)c2O)cc1 [ICARITIN], the Ratio IC50 was 12.9.

System: NCI/ADR-RES
Assay: Inhibition of MDR1 gene expression in human MCF7/ADR cells after 48 hrs by RT-PCR analysis
Assay type: functional, cell-based
Conditions: not given
In the case of COc1ccc(-c2oc3c4c(cc(O)c3c(=O)c2O)OC(C)(C)CC4)cc1S(=O)(=O)O, the Activity is reported as “Active”. In the case of COc1ccc(-c2oc3c(CC=C(C)C)c(O)cc(O)c3c(=O)c2O)cc1 [ICARITIN], the Activity is reported as “Active”.

Target: T1, P-gp (ABCB1) (Homo sapiens, UniProt P08183)
T1 sequence (P08183 whole entry): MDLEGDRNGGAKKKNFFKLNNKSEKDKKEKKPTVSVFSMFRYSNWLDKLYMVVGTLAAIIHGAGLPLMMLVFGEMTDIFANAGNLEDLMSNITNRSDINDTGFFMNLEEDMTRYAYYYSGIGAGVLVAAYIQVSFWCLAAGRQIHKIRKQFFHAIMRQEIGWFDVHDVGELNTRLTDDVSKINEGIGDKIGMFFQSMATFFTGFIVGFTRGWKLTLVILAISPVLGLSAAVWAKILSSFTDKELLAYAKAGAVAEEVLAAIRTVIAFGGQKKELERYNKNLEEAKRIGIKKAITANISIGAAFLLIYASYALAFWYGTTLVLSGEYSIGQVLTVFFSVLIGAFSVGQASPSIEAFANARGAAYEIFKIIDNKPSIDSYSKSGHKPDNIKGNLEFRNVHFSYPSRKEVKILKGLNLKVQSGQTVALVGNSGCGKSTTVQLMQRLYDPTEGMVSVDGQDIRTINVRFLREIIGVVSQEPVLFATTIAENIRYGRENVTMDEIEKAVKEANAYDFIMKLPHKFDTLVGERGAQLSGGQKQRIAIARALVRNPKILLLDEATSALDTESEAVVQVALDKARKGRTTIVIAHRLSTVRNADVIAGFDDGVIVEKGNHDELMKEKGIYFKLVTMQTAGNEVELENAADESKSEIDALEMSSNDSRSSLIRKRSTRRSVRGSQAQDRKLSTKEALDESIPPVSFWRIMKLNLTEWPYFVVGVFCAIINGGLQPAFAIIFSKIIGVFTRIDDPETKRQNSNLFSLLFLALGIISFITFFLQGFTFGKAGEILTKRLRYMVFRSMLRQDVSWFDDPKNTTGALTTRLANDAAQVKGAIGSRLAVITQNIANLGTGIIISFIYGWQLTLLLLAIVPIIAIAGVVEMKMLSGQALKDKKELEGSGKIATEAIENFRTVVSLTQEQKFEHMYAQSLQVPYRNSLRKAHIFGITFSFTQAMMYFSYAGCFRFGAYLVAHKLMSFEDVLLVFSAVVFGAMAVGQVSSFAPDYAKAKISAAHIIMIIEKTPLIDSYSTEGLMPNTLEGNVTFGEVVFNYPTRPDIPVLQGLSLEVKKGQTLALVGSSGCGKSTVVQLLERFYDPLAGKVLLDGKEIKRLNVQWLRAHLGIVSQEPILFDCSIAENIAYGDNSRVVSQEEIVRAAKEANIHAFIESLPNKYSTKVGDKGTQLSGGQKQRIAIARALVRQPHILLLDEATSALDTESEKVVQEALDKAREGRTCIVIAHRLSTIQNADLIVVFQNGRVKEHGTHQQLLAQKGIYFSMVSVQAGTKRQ
Assay: Inhibition of P-gp in human Caco-2 cells assessed as increase in influx permeability from apical to basolateral side at 50 uM after 120 mins
Assay type: cell-based
Conditions: not given
Work on COc1ccc(-c2oc3c(CC=C(C)C)c(O)cc(O)c3c(=O)c2O)cc1 [ICARITIN] yielded an inhibition at 2 h, 50 µM of 41.9%.

Target: T1, P-gp (ABCB1)
Assay: Inhibition of P-gp in human Caco-2 cells assessed as decrease in efflux permeability from basolateral to apical side at 50 uM after 120 mins
Assay type: cell-based
Conditions: not given
For COc1ccc(-c2oc3c(CC=C(C)C)c(O)cc(O)c3c(=O)c2O)cc1 [ICARITIN], the inhibition at 2 h, 50 µM was 41.9%.
